Among the data in PubChem BioAssay (NCI) are TGI and GI50 values, retold here.

Test systems include MALME-3M melanoma; OVCAR-5 ovarian; SK-MEL-28 melanoma; NCI-H23 lung; SW-620 colon; HCT-116 colon; NCI-H226 lung; ACHN renal; SF-295 CNS; SR leukemia.
Common to all, as to assay: inhibition of tumour cell growth, NCI panel, 48 h

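Test compounds were applied to cells in 96-well plates for 48 hours at 5 doses. Abbreviation: GI50, concentration required for 50% inhibition of growth. Definition used: TGI = concentration required for complete inhibition of growth.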 Bounds are passed on as bounds.

Consider `CC(=O)OC1(C#N)CC2OC1C1C2N1C(=O)c1ccccc1` (stereo not given), for which the TGI in the test on MALME-3M melanoma, in the test with OVCAR-5 ovarian, in the test with SK-MEL-28 melanoma, in the test on NCI-H23 lung, in the test on SW-620 colon and with HCT-116 colon was > 100 µM in each case. Also, the TGI in the test on NCI-H226 lung and in the test with ACHN renal was > 100 µM throughout.

As for `COC(=O)C(C(=O)C(=O)Nc1cccc(O)c1)c1nc2ccc(Cl)cc2[nH]c1=O` (stereo not given), the TGI with MALME-3M melanoma, in the test on OVCAR-5 ovarian, in the test with SK-MEL-28 melanoma, in the test on SF-295 CNS, with NCI-H23 lung and in the test on SW-620 colon was > 100 µM throughout. The TGI with HCT-116 colon, in the test on NCI-H226 lung and with ACHN renal was > 100 µM in each case.

For `O=C(Nc1cccc(Cl)c1)Nc1cccc(Cl)c1`, the GI50 in the test on MALME-3M melanoma was > 100 µM; in the test on OVCAR-5 ovarian it was > 100 µM; in the test with SK-MEL-28 melanoma, > 100 µM; in the test with SF-295 CNS, 3.01 µM; in the test with NCI-H226 lung, > 100 µM. Moreover, the TGI in the test on MALME-3M melanoma, in the test on OVCAR-5 ovarian, in the test on SK-MEL-28 melanoma, in the test on SF-295 CNS and in the test with NCI-H226 lung was > 100 µM in each case.

On to `Cc1ccc2nc3c(Cl)cc(=O)cc-3sc2c1`, for which the TGI in the test with MALME-3M melanoma is 75.9 µM; in the test on SK-MEL-28 melanoma, 81.4 µM; in the test on SF-295 CNS, 63.2 µM; with SW-620 colon it was 43.5 µM; in the test on HCT-116 colon, 32.2 µM; with NCI-H226 lung it was 79.1 µM. The TGI in the test on ACHN renal amounted to 54.4 µM.

With `CC1=C(C(=O)Nc2cccc(C(F)(F)F)c2)C(c2ccc(O)cc2)C(C(=O)Nc2cccc(C(F)(F)F)c2)=C(C)N1`, the TGI is 64.4 µM with MALME-3M melanoma; 72.6 µM in the test on OVCAR-5 ovarian; 47.7 µM in the test on SK-MEL-28 melanoma; 39.9 µM in the test with SF-295 CNS; 35.8 µM in the test with NCI-H23 lung; 44 µM with SW-620 colon. Besides, the TGI with HCT-116 colon came to 28.1 µM; with NCI-H226 lung, 44.3 µM; with ACHN renal, 96.2 µM.

Consider `N=C(N)n1ncc(Cl)c(Cl)c1=O`, for which the TGI in the test with MALME-3M melanoma was 4.98 µM; in the test with OVCAR-5 ovarian, 30.7 µM; in the test with SK-MEL-28 melanoma, 5.26 µM; with SF-295 CNS, 22.6 µM; in the test with NCI-H23 lung it was 5.06 µM; with SW-620 colon, 3.75 µM. In addition, the TGI in the test with HCT-116 colon was found to be 3.32 µM; in the test with NCI-H226 lung it was 18.3 µM; in the test on ACHN renal it was 14.3 µM.

Consider `COC1=C(OC)C(=O)C(/C=C(\C)C(=O)O)=C(C)C1=O`, for which the GI50 with MALME-3M melanoma, with OVCAR-5 ovarian, in the test on SK-MEL-28 melanoma, with SR leukemia, in the test with SF-295 CNS and in the test on NCI-H23 lung was > 100 µM throughout. The GI50 with SW-620 colon, in the test on HCT-116 colon and in the test with ACHN renal was > 100 µM in each case. The TGI with MALME-3M melanoma, in the test on OVCAR-5 ovarian, in the test with SK-MEL-28 melanoma, with SR leukemia, in the test on SF-295 CNS and with NCI-H23 lung was > 100 µM each time. Further, the TGI in the test on SW-620 colon, with HCT-116 colon and in the test with ACHN renal was > 100 µM throughout.

Take `Cc1ccc(-n2c3c(c4c(CN5CCCCC5)c(O)ccc42)CCc2ccccc2C3=O)cc1`: the GI50 with MALME-3M melanoma was > 100 µM; in the test with OVCAR-5 ovarian, > 100 µM; in the test with SF-295 CNS, 35.8 µM; in the test with NCI-H23 lung, > 100 µM; with SW-620 colon, > 100 µM; in the test on HCT-116 colon, 43.4 µM. For the same compound, the GI50 in the test with NCI-H226 lung and in the test on ACHN renal was > 100 µM each time. The TGI in the test with MALME-3M melanoma, in the test with OVCAR-5 ovarian, in the test with SF-295 CNS, in the test on NCI-H23 lung, with SW-620 colon and with HCT-116 colon was > 100 µM throughout. Moreover, the TGI in the test on NCI-H226 lung and in the test on ACHN renal was > 100 µM each time.

`O=C(c1cc(=O)c2ccc(O)cc2o1)c1ccc(Cl)cc1Cl`: the TGI is > 94.7 µM in the test on MALME-3M melanoma; > 100 µM with OVCAR-5 ovarian; > 100 µM in the test with SK-MEL-28 melanoma; > 65.9 µM in the test with SF-295 CNS; > 73.3 µM in the test with NCI-H23 lung; > 54.6 µM with SW-620 colon. Moreover, the TGI with HCT-116 colon was > 54.1 µM; in the test with NCI-H226 lung, 99.6 µM; with ACHN renal, > 100 µM.

Take `Clc1ccc(-c2nc3c(-c4ccc(Cl)cc4)nc(-c4ccccc4)cn3c2-c2ccc(Cl)cc2)cc1`: the GI50 in the test with MALME-3M melanoma is > 50 µM; in the test on OVCAR-5 ovarian, > 50 µM; with SK-MEL-28 melanoma, > 50 µM; in the test on SF-295 CNS it was 12 µM; in the test with NCI-H23 lung, > 50 µM; in the test with SW-620 colon, > 50 µM. Besides, the GI50 in the test with HCT-116 colon, in the test on NCI-H226 lung and with ACHN renal was > 50 µM throughout. Further, the TGI with MALME-3M melanoma, in the test on OVCAR-5 ovarian, in the test on SK-MEL-28 melanoma, in the test with SF-295 CNS, with NCI-H23 lung and with SW-620 colon was > 50 µM each time. Besides, the TGI with HCT-116 colon, in the test on NCI-H226 lung and in the test on ACHN renal was > 50 µM each time.

In the case of `CCOC(=O)C1=C(Nc2ccccc2)OC/C1=N\NC(=O)Cc1ccccc1`, the TGI with MALME-3M melanoma, with OVCAR-5 ovarian, in the test on SK-MEL-28 melanoma, in the test with SF-295 CNS, with NCI-H23 lung and in the test with SW-620 colon was > 50 µM in each case. Also, the TGI in the test with HCT-116 colon and with NCI-H226 lung was > 50 µM throughout.

Take `CCOc1ccccc1NC(=O)C(=O)CC(=O)C1=C(C)Nc2ccccc2S1`: the TGI in the test with MALME-3M melanoma, with OVCAR-5 ovarian, with SK-MEL-28 melanoma, in the test with SF-295 CNS, in the test with NCI-H23 lung and in the test on SW-620 colon was > 100 µM each time. Also, the TGI in the test with HCT-116 colon, in the test with NCI-H226 lung and in the test with ACHN renal was > 100 µM in each case.
